Assays:
[1] = system: barnyardgrass; test: Test C preemergence; type: in vivo, Echinochloa crusgalli; conditions: 0 to 100 scale (0 no effect, 100 complete control); for Barnyardgrass plant response rating: preemergence
Outline: (§1)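 Visual injury score, 0–100 (100 = complete control), taken 10 days after treatment relative to untreated controls. Pre: directed spray onto soil over sown seeds. Post: foliar spray at one- to two-leaf stage, 2–10 cm. Solvent/surfactant formulation; loam–sand soil; greenhouse.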

[2] = system: blackgrass; test: Test C preemergence; type: in vivo, Alopecurus myosuroides; conditions: 0 to 100 scale (0 no effect, 100 complete control); for Blackgrass plant response rating: preemergence
Outline: as §1

[3] = system: corn; test: Test C preemergence; type: in vivo, Zea mays; conditions: 0 to 100 scale (0 no effect, 100 complete control); for Corn plant response rating: preemergence
Outline: as §1

[4] = system: green foxtail; test: Test C preemergence; type: in vivo, Setaria viridis; conditions: 0 to 100 scale (0 no effect, 100 complete control); for Foxtail, Green plant response rating: preemergence
Outline: as §1

[5] = system: kochia; test: Test C preemergence; type: in vivo, Bassia scoparia; conditions: 0 to 100 scale (0 no effect, 100 complete control); for Kochia plant response rating: preemergence
Outline: as §1

[6] = system: oat, wild; test: Test C preemergence; type: in vivo, Avena fatua; conditions: 0 to 100 scale (0 no effect, 100 complete control); for Oat, Wild plant response rating: preemergence
Outline: as §1

[7] = system: pigweed, palmer; test: Test C preemergence; type: in vivo, Amaranthus palmeri; conditions: 0 to 100 scale (0 no effect, 100 complete control); for Pigweed, Palmer plant response rating: preemergence
Outline: as §1

[8] = system: ragweed; test: Test C preemergence; type: in vivo, Ambrosia artemisiifolia; conditions: 0 to 100 scale (0 no effect, 100 complete control); for Ragweed plant response rating: preemergence
Outline: as §1

[9] = system: ryegrass, Italian; test: Test C preemergence; type: in vivo, Lolium multiflorum; conditions: 0 to 100 scale (0 no effect, 100 complete control); for Ryegrass, Italian plant response rating: preemergence
Outline: as §1

[10] = system: soybean; test: Test C preemergence; type: in vivo, Glycine max; conditions: 0 to 100 scale (0 no effect, 100 complete control); for Soybean plant response rating: preemergence
Outline: as §1

[11] = system: wheat; test: Test C preemergence; type: in vivo, Triticum aestivum; conditions: 0 to 100 scale (0 no effect, 100 complete control); for Wheat plant response rating: preemergence
Outline: as §1

[12] = system: barnyardgrass; test: Test C postemergence; type: in vivo, Echinochloa crusgalli; conditions: 10 days
Outline: as §1

[13] = system: blackgrass; test: Test C postemergence; type: in vivo, Alopecurus myosuroides; conditions: 10 days
Outline: as §1

[14] = system: corn; test: Test C postemergence; type: in vivo, Zea mays; conditions: 10 days
Outline: as §1

[15] = system: green foxtail; test: Test C postemergence; type: in vivo, Setaria viridis; conditions: 10 days
Outline: as §1

[16] = system: kochia; test: Test C postemergence; type: in vivo, Bassia scoparia; conditions: 10 days
Outline: as §1

[17] = system: oat, wild; test: Test C postemergence; type: in vivo, Avena fatua; conditions: 10 days
Outline: as §1

[18] = system: pigweed, palmer; test: Test C postemergence; type: in vivo, Amaranthus palmeri; conditions: 10 days
Outline: as §1

[19] = system: ragweed; test: Test C postemergence; type: in vivo, Ambrosia artemisiifolia; conditions: 10 days
Outline: as §1

[20] = system: ryegrass, Italian; test: Test C postemergence; type: in vivo, Lolium multiflorum; conditions: 10 days
Outline: as §1

[21] = system: soybean; test: Test C postemergence; type: in vivo, Glycine max; conditions: 10 days
Outline: as §1

[22] = system: wheat; test: Test C postemergence; type: in vivo, Triticum aestivum; conditions: 10 days
Outline: as §1

[23] = system: galium; test: Test C postemergence; type: in vivo, Galium aparine; conditions: 10 days
Outline: as §1

[24] = system: horseweed; test: Test C postemergence; type: in vivo, Erigeron canadensis; conditions: 10 days
Outline: as §1

[25] = system: barnyardgrass; test: Test D flooded paddy test; type: in vivo, Echinochloa crus-galli; conditions: 250 g ai/ha, applied to paddy water, visual rating after 13 to 14 days, scale 0 to 100 (0 no effect, 100 complete control)
Outline: (§2)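 Post-flood water application at the 2-leaf stage; 3 cm flood depth kept constant; visual control rating 0–100 after 13–14 days greenhouse growth.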

[26] = system: ducksalad; test: Test D flooded paddy test; type: in vivo, Heteranthera limosa; conditions: 250 g ai/ha, applied to paddy water, visual rating after 13 to 14 days, scale 0 to 100 (0 no effect, 100 complete control)
Outline: as §2

[27] = system: rice; test: Test D flooded paddy test; type: in vivo, Oryza sativa; conditions: 250 g ai/ha, applied to paddy water, visual rating after 13 to 14 days, scale 0 to 100 (0 no effect, 100 complete control)
Outline: as §2

[28] = system: sedge, umbrella; test: Test D flooded paddy test; type: in vivo, Cyperus difformis; conditions: 250 g ai/ha, applied to paddy water, visual rating after 13 to 14 days, scale 0 to 100 (0 no effect, 100 complete control)
Outline: as §2

[29] = Preemergence, 500 g ai/ha, visual rating after 10 days
[30] = 125 g ai/ha, postemergence, 0 to 100 scale, 0 no effect, 100 complete control
[31] = Postemergence, 500 g ai/ha, visual 0 to 100 scale (0 no effect, 100 complete control)
[32] = 500 g ai/ha, postemergence, 0 to 100 scale (0 no effect, 100 complete control)

COc1c(F)cc(-n2cnc(C(C)C)n2)cc1C(=O)N1C[C@H](C)Oc2c(Cl)cccc21 [Compound 177]
Plant response rating, Barnyardgrass [1, 29]: 100 | Barnyardgrass plant response rating ([1]; Test C, 125 g ai/ha): 100 | Plant response rating, Blackgrass [2, 29]: 60 | Blackgrass plant response rating ([2]; Test C, 125 g ai/ha): 40 | Plant response rating, Corn [3, 29]: 30 | Corn plant response rating ([3]; Test C, 125 g ai/ha): 30 | Plant response rating, Foxtail, Green [4, 29]: 100 | Foxtail, Green plant response rating ([4]; Test C, 125 g ai/ha): 100 | Plant response rating, Kochia [5, 29]: 100 | Kochia plant response rating ([5]; Test C, 125 g ai/ha): 80 | Plant response rating, Oat, Wild [6, 29]: 90 | Oat, Wild plant response rating ([6]; Test C, 125 g ai/ha): 80 | Plant response rating, Pigweed, Palmer [7, 29]: 100 | Pigweed, Palmer plant response rating ([7]; Test C, 125 g ai/ha): 100 | Plant response rating, Ragweed [8, 29]: 90 | Ragweed plant response rating ([8]; Test C, 125 g ai/ha): 90 | Plant response rating, Ryegrass, Italian [9, 29]: 100 | Ryegrass, Italian plant response rating ([9]; Test C, 125 g ai/ha): 100 | Plant response rating, Soybean [10, 29]: 90 | Soybean plant response rating ([10]; Test C, 125 g ai/ha): 60 | Plant response rating, Wheat [11, 29]: 60 | Wheat plant response rating ([11]; Test C, 125 g ai/ha): 30 | Plant response rating, Barnyardgrass [12, 30]: 30 | Plant response rating, Barnyardgrass [12, 31]: 70 | Plant response rating, Blackgrass [13, 30]: 90 | Plant response rating, Blackgrass [13, 31]: 90 | Plant response rating, Corn [14, 30]: 40 | Plant response rating, Corn [14, 31]: 60 | Plant response rating, Foxtail, Green [15, 30]: 90 | Plant response rating, Foxtail, Green [15, 31]: 90 | Plant response rating, Kochia [16, 30]: 90 | Plant response rating, Kochia [16, 31]: 100 | Plant response rating, Oat, Wild [17, 30]: 60 | Plant response rating, Oat, Wild [17, 31]: 80 | Plant response rating, Pigweed, Palmer [18, 30]: 90 | Plant response rating, Pigweed, Palmer [18, 31]: 100 | Plant response rating, Ragweed [19, 30]: 80 | Plant response rating, Ragweed [19, 31]: 70 | Plant response rating, Ryegrass, Italian [20, 30]: 80 | Plant response rating, Ryegrass, Italian [20, 31]: 90 | Plant response rating, Soybean [21, 30]: 100 | Plant response rating, Soybean [21, 31]: 100 | Plant response rating, Wheat [22, 30]: 30 | Plant response rating, Wheat [22, 31]: 50 | Plant response rating, Galium [23, 30]: 90 | Plant response rating, Galium [23, 31]: 100 | Plant response rating, Horseweed [24, 30]: 30 | Plant response rating, Horseweed [24, 31]: 80 | Plant response rating, Barnyardgrass (Flood) [25]: 35 | Plant response rating, Ducksalad (Flood) [26]: 50 | Plant response rating, Rice (Flood) [27]: 0 | Plant response rating, Sedge, Umbrella (Flood) [28]: 95

CC(C)c1ncn(-c2cccc(C(=O)N3CC(C(F)(F)F)Oc4c(Cl)cccc43)c2)n1 (single isomer, unassigned) [Compound 289]
Barnyardgrass plant response rating ([1]; 500 g ai/ha): 100 | Barnyardgrass plant response rating ([1]; Test C, 125 g ai/ha): 60 | Blackgrass plant response rating ([2]; 500 g ai/ha): 90 | Blackgrass plant response rating ([2]; Test C, 125 g ai/ha): 80 | Corn plant response rating ([3]; 500 g ai/ha): 20 | Corn plant response rating ([3]; Test C, 125 g ai/ha): 10 | Foxtail, Green plant response rating ([4]; 500 g ai/ha): 100 | Foxtail, Green plant response rating ([4]; Test C, 125 g ai/ha): 100 | Kochia plant response rating ([5]; 500 g ai/ha): 100 | Kochia plant response rating ([5]; Test C, 125 g ai/ha): 70 | Oat, Wild plant response rating ([6]; 500 g ai/ha): 90 | Oat, Wild plant response rating ([6]; Test C, 125 g ai/ha): 80 | Pigweed, Palmer plant response rating ([7]; 500 g ai/ha): 100 | Pigweed, Palmer plant response rating ([7]; Test C, 125 g ai/ha): 100 | Ragweed plant response rating ([8]; 500 g ai/ha): 70 | Ragweed plant response rating ([8]; Test C, 125 g ai/ha): 50 | Ryegrass, Italian plant response rating ([9]; 500 g ai/ha): 100 | Ryegrass, Italian plant response rating ([9]; Test C, 125 g ai/ha): 100 | Soybean plant response rating ([10]; 500 g ai/ha): 90 | Soybean plant response rating ([10]; Test C, 125 g ai/ha): 90 | Wheat plant response rating ([11]; 500 g ai/ha): 50 | Wheat plant response rating ([11]; Test C, 125 g ai/ha): 30 | Plant response rating, Barnyardgrass [12, 30]: 30 | Plant response rating, Barnyardgrass [12, 32]: 60 | Plant response rating, Blackgrass [13, 30]: 30 | Plant response rating, Blackgrass [13, 32]: 100 | Plant response rating, Corn [14, 30]: 20 | Plant response rating, Corn [14, 32]: 30 | Plant response rating, Foxtail, Green [15, 30]: 20 | Plant response rating, Foxtail, Green [15, 32]: 90 | Plant response rating, Kochia [16, 30]: 80 | Plant response rating, Kochia [16, 32]: 90 | Plant response rating, Oat, Wild [17, 30]: 30 | Plant response rating, Oat, Wild [17, 32]: 60 | Plant response rating, Pigweed, Palmer [18, 30]: 90 | Plant response rating, Pigweed, Palmer [18, 32]: 100 | Plant response rating, Ragweed [19, 30]: 60 | Plant response rating, Ragweed [19, 32]: 70 | Plant response rating, Ryegrass, Italian [20, 30]: 40 | Plant response rating, Ryegrass, Italian [20, 32]: 90 | Plant response rating, Soybean [21, 30]: 100 | Plant response rating, Soybean [21, 32]: 90 | Plant response rating, Wheat [22, 30]: 20 | Plant response rating, Wheat [22, 32]: 40 | Plant response rating, Galium [23, 30]: 100 | Plant response rating, Galium [23, 32]: 100 | Plant response rating, Horseweed [24, 30]: 0 | Plant response rating, Horseweed [24, 32]: 40 | Plant response rating, Barnyardgrass (Flood) [25]: 50 | Plant response rating, Ducksalad (Flood) [26]: 65 | Plant response rating, Rice (Flood) [27]: 10 | Plant response rating, Sedge, Umbrella (Flood) [28]: 100

Reference: patent US20260262643A1, “HERBICIDAL BENZOXAZINES” (FMC CORPORATION, priority 2022, published 2026)
